Results on two compounds are retold here after patent US8436195B2 (priority 2006, dated 2013).

In series [1] the test system is cancer cells PC-3 (prostate carcinoma). As to the kind of experiment: Mitochondria membranes of PC-3 cancer cells after incubation with preparation. The series is classed as cell-based. The settings on record: PC-3 cells, diluted to 10^−5 mmol/l, 72 hours at 37° C. How it is done:
A control group was also formed consisting of the same number of vials with the same components except cancer cells, and instead, fibroblasts were put in the group vials. After thermostatting for 72 hours at 37° C. the contents of the above vials was analyzed.

The conditions of series [2]: water and alcohol; from Mashkovskiy, Medications; cited from earlier work.

Structures are written as SMILES.

`COc1cccc2c1C(=O)c1c(O)c3c(c(O)c1C2=O)C[C@@](O)(C(=O)CO)C[C@@H]3O[C@H]1C[C@H](N)[C@H](O)[C@H](C)O1` [adriamycin]: the “state of mitochondria membranes” value in series [1] is on record as “membrane swelling”. For `O=c1[nH]cc(F)c(=O)[nH]1` [fluororacil], in series [2], the solubility result was “poorly soluble in water and alcohol”.
